The values below come from paper PMC6921279 (Frontiers in Endocrinology, 2019).

In assay [1] the test system is Src. Description: CRF-induced Src phosphorylation at Tyr416 in COS-7 cells expressing HA-CRF1R. The assay is classed as cell-based. The conditions noted are these: 100 nM wortmannin, 30 min pretreatment; 100 nM CRF, 5 min. The method, then: (§1) COS-7 cells (from the American Type Culture Collection) were cultured at 37°C in a humidified atmosphere of 95% air, 5% CO2, in DMEM supplemented with 10% FBS, 100 μg/ml streptomycin, and 100 units/ml penicillin (COS-7 growth medium). Transient transfections were performed using LipofectAMINE (Life Technologies: Gaithersburg, MD) as described previously ([27]). Cells were seeded at 8 × 10^5 cells/10-cm dish in COS-7 medium and cultured for 3 days before transfection. COS-7 cells were transfected in 5 ml/dish OptiMEM containing 10 μg/ml LipofectAMINE with empty vector, pcDNA3 encoding the HA-CRF1R or the HA-CRF1R-Δ386 mutant. […] After replacing the transfection medium with fresh growth medium, transfected COS-7 cells were cultured for 1 day. […]
(§2) The protocols for measuring total and phosphorylated ERK1/2, c-Src, PYK2, Akt, and EGFR have been previously published ([28], [29]). […] The labeled bands were quantified using the Quantity One 4.6.3 software program (Bio-Rad).
Figure 5 Role of Src tyrosine kinase in CRF-stimulated ERK1/2 phosphorylation. […] Total cell lysates were separated by SDS-PAGE and analyzed by immunoblotting with anti-p-Src Tyr^416 (A,B) or anti-p-ERK1/2 Thr^202/Tyr^204 (C–E), as described in Materials and Methods. Src, PYK2, and ERK1/2 phosphorylation were quantitated by densitometry, and mean values were plotted from three to five independent experiments. […]

The subject of assay [2] is EGF-stimulated Akt phosphorylation. Description: Modulation of EGF-stimulated Akt phosphorylation in COS-7 cells. The assay is classed as cell-based. The conditions noted are these: wortmannin 100 nM, 30 min pretreatment; 10 ng/ml EGF, 10 min. The method, then:
as §1, §2
Figure 8 Involvement of the PI3K pathway in CRF-stimulated ERK1/2 phosphorylation. […] Total cell lysates were separated by SDS-PAGE and analyzed by immunoblotting with anti-p-Akt Ser^473 (A) or anti-p-ERK1/2 Thr^202/Tyr^204 (A–C), as described in Materials and Methods. Akt and ERK1/2 phosphorylation were quantitated by densitometry, and mean values were plotted from three to five independent experiments. […]

Regarding `COC[C@H]1OC(=O)c2coc3c2[C@@]1(C)C1=C(C3=O)[C@@H]2CCC(=O)[C@@]2(C)C[C@H]1OC(C)=O` [wortmannin], in assay [1], the “effect on CRF-induced Src Tyr416 phosphorylation” value was “did not alter CRF-induced phosphorylation of Src at Tyr^416”. In addition, in assay [2], the “effect on EGF-stimulated Akt phosphorylation” value is on record as “abolished the stimulatory action of EGF on Akt”.
